Measured values from patent US10746738B2, “Claudin-1 peptide reagents and methods” (THE REGENTS OF THE UNIVERSITY OF MICHIGAN, priority 2015, dated 2020).
Entries after “also recorded” stand apart in the source; their conditions may differ.

How the values were obtained:
SW620 cells = assay: Apparent association time constant by flow cytometry; format: binding, human; settings: 5 μM, 4° C.
Experimental: To measure the apparent association time constant of RTS*-Cy5.5, SW620 cells were washed two times with PBS+0.5% BSA, then 1×10^5 cells were incubated with 5 μM RTS*Cy5.5 at 4° C. for different time intervals ranging from 2-15 min. The cells were immediately washed of unbound peptide several times with PBS+0.5% before analyzing via flow cytometry. The mean fluorescent intensity of SW620 cells at the various time points was ratioed with that of untreated cells and used to calculate the rate constant, k, by fitting the data to a first order kinetics model, y(t)=Imax[1−exp^(−kt)], using Origin 6.1 software.
To measure the apparent association time constant of RTS*-Cy5.5, SW620 cells were washed 2× with PBS+0.5% BSA, then ˜10^5 cells were incubated with 5 μM RTS*-Cy5.5 at 4° C. for time intervals ranging from 2-15 min. The cells were immediately washed of unbound peptide 5× with PBS+0.5% BSA before analyzing with flow cytometry. The mean fluorescence intensity of SW620 cells at the various time points was ratioed with that of untreated cells and used to calculate the rate constant k by fitting the data to a first order kinetics model, y(t)=Imax[1−exp^(−kt)], using Origin 6.1 software. An apparent association time constant k=0.83 min^−1 which corresponds to <1.2 min was measured.

colonic dysplasia = assay: In vivo fluorescence endoscopy of colon in CPC;Apc mouse; settings: CPC;Apc mouse colon
Source text: A genetically engineered mouse model (Cpc;Apc) that spontaneously forms adenomatous polyps in the colon was used for this study and handled according to Institutional Guidelines. The colons of anesthetized mice were first cleaned with water before imaging with a small animal endoscope (Karl Storz Veterinary Endoscope) using the white light channel to locate polyps by identifying anatomic landmarks and the distance of the endoscope tip from the anus. […] Fluorescent and reflectance images were then collected with the same endoscope set to the appropriate channels. Once in vivo imaging was complete, four of the mice used in the study were euthanized and colons harvested. Polyps and flat lesions detected during fluorescence imaging were located, removed, and processed for histology (H&E).
These mice are genetically-engineered to spontaneously develop colonic dysplasia, and the colonic lesions that develop are molecularly and histologically similar to that seen in human disease, making these mice a good model for monitoring cancer development. Because the extra-cellular domain of claudin-1 is completely homologous between human and mouse, peptides developed for human targets can be directly used in mouse imaging experiments. […] CPC;Apc mice were imaged at ˜3 months of age when they first begin to develop dysplasia. […] After imaging is completed, mice were euthanized, and the colons were resected. Based on the location of dysplastic lesions determined using fluorescence images collected with endoscopy, a pathologist measured the depth of dysplasia on histology, as shown by the dashed arrow in FIG. 7E. […] Images are obtained from mice over at least three sessions separated by 1 week to monitor for cancer progression.

[1] = tested on: proximal human colon specimens; assay: Immunofluorescence of proximal human colon with claudin-1 peptide and antibody
Experimental: Formalin-fixed, paraffin-embedded (FFPE) specimens from human proximal colon were obtained from the archived tissue bank in the Department of Pathology at the University of Michigan. 5 μm thick sections were cut, mounted onto glass slides (Superfrost Plus, Fischer Scientific). The tissues were deparaffinized using a standard protocol. The sections were incubated with 3 rounds of xylene (3 min each) and 2 rounds of 100% and 95% ethanol (2 min each), and hydrated with water for 5 min. Antigen retrieval was performed with 10 mM citric acid buffer containing 0.05% Tween 20; pH 6.0. The specimens were placed in a citric acid buffer, maintained at a sub-boiling temperature for 15 min, and then allowed to cool to RT for 30 min. […] Confocal fluorescence images were collected with using a 63× oil immersion objective (Leica TCS SP5 Microsystems). […]
The mean fluorescence intensities from 3 boxes with dimensions of 20×20 μm2 placed completely within the surface epithelium of each image was measured for RTS*-Cy5.5 using custom Matlab software (MathWorks Inc). […]
Co-localization of peptide and antibody binding can be appreciated on these merged images, and the extent is characterized by the Pearson's correlation coefficient ρ. We measured the fluorescence intensities from binding of the RTS*-Cy5.5 peptide in a set of 3 boxes with dimensions of 20×20 μm^2 located at random on cells in the epithelium.

## RTS*-Cy5.5: RTSPSSR labeled at the C-terminus with Cy5.5 via a GGGSK linker
SW620 cells
  time corresponding to association time constant: < 1.2 min
SW620 cells; 2-15 min
  apparent association time constant k: 0.83 min⁻¹
Colonic dysplasia
  fluorescence signal from dysplasia on endoscopy: Increased signal; also recorded: increased fluorescence
[1]; normal colonic mucosa and hyperplastic polyps
  binding on confocal microscopy: minimal fluorescence intensity; also recorded: minimal binding
[1]; sessile serrated adenomas (SSA) and adenomas
  binding on confocal microscopy: strong binding; also recorded: found to bind; also recorded: Strong staining
